According to ChEMBL document CHEMBL5365447, “Pronucleotides of 2',3'-Dideoxy-2',3'-Didehydrothymidine as Potent Anti-HIV Compounds” (J Med Chem, 2023):
Active and inactive are the calls of the source. No cut-off for these calls is given here.

Legend:
[1] = Retention time of the compound by HPLC analysis; format: physicochemical
[2] = Chemical stability of the compound in phosphate buffer saline assessed as half life at pH 7.3 by HPLC analysis; format: physicochemical; settings: phosphate buffered saline
[3] = Prodrug conversion in pH 7.3 phosphate buffer assessed as metabolite formation by measuring half life in presence of pig liver esterase by HPLC analysis; format: ADME; settings: isolated protein
[4] = Prodrug conversion in human CEM/0 cell extract assessed as metabolite formation by measuring half life by HPLC analysis; format: ADME; settings: ccrf-cem
[5] = tested on: Human immunodeficiency virus 1; experiment: Antiviral activity against HIV-1 HE infected in wild-type human CEM/0 cells assessed as inhibition of virus-induced cytopathic effect incubated for 4 to 5 days by light microscopic analysis; format: functional, organism-based; settings: Human immunodeficiency virus 1, HE, CCRF-CEM
[6] = tested on: Human immunodeficiency virus 2; experiment: Antiviral activity against HIV-2 ROD infected in wild-type human CEM/0 cells assessed as inhibition of virus-induced cytopathic effect incubated for 4 to 5 days by light microscopic analysis; format: functional, organism-based; settings: Human immunodeficiency virus 2, ROD, CCRF-CEM
[7] = tested on: Human immunodeficiency virus 2; experiment: Antiviral activity against HIV-2 ROD infected in thymidine kinase-deficient human CEM cells assessed as inhibition of virus-induced cytopathic effect incubated for 4 to 5 days by light microscopic analysis; format: functional, organism-based; settings: Human immunodeficiency virus 2, ROD, CCRF-CEM
[8] = Cytotoxicity against human CEM cells assessed as reduction in cell viability incubated for 4 to 5 days by light microscopic analysis; format: toxicity, cell-based; settings: CEM cells (CCRF-CEM), time 4-5 day
[9] = Selectivity index, ratio of CC50 for human CEM cells to EC50 for HIV-2 ROD infected in thymidine kinase-deficient human CEM cells; format: toxicity; settings: read-out: Ratio CC50/EC50
[10] = Prodrug conversion in pH 7.3 phosphate buffer assessed as ((2S,5R)-5-(5-methyl-2,4-dioxo-3,4-dihydropyrimidin-1(2H)-yl)-2,5-dihydrofuran-2-yl)methyl tri-hydrogen diphosphate formation by measuring half life in presence of pig liver esterase by HPLC analysis; format: ADME
[11] = Prodrug conversion in human CEM/0 cell extract assessed as ((2S,5R)-5-(5-methyl-2,4-dioxo-3,4-dihydropyrimidin-1(2H)-yl)-2,5-dihydrofuran-2-yl)methyl tri-hydrogen diphosphate formation by HPLC analysis; format: ADME; settings: ccrf-cem
[12] = biological target: T1, DNA polymerase alpha catalytic subunit (Homo sapiens) (UniProt P09884); experiment: Substrate activity at human DNA polymerase alpha measured after 4 hrs by electrophoresis based primer extension assay
T1 sequence (whole entry): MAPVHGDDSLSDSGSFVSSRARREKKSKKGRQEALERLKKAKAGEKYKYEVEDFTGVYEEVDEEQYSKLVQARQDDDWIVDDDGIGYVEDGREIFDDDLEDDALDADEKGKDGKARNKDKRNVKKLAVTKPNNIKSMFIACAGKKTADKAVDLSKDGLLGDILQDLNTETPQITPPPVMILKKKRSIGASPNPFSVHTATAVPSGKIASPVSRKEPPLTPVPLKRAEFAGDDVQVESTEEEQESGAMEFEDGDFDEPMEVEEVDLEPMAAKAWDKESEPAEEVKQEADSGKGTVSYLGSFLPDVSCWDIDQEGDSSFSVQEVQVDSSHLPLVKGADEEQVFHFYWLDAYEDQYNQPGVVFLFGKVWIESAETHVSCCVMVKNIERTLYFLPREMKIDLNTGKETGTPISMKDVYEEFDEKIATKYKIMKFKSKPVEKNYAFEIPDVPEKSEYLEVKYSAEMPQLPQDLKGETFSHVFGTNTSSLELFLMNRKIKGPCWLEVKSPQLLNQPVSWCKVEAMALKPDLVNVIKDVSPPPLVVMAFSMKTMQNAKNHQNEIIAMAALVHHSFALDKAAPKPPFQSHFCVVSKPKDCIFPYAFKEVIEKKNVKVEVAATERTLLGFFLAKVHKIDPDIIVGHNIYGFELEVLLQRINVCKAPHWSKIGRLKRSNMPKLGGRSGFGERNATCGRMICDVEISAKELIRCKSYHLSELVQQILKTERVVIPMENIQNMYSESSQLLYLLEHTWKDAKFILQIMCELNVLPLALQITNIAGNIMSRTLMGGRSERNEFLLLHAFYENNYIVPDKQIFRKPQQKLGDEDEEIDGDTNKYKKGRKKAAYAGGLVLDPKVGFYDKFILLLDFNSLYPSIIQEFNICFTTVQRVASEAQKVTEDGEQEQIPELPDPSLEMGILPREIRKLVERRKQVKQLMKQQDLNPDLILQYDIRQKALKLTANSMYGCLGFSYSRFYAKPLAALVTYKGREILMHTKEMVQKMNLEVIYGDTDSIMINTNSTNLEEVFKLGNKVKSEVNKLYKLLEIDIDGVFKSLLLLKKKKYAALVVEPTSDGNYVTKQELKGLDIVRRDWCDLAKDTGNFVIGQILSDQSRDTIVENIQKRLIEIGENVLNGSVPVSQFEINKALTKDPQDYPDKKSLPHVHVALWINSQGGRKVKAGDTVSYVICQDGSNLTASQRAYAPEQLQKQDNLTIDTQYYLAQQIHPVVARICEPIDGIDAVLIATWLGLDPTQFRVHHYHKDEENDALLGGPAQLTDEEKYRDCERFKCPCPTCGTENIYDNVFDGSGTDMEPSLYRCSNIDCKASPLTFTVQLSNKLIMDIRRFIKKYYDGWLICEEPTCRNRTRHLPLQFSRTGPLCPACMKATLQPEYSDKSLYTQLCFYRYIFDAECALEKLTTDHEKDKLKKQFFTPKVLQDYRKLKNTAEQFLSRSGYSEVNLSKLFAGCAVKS

[13] = biological target: DNA polymerase beta (Homo sapiens) (UniProt P06746); experiment: Substrate activity at human DNA polymerase beta measured after 4 hrs by electrophoresis based primer extension assay
[14] = biological target: T2, DNA polymerase subunit gamma-1 (Homo sapiens) (UniProt P54098); experiment: Substrate activity at human DNA polymerase gamma measured after 4 hrs by electrophoresis based primer extension assay
T2 sequence (whole entry): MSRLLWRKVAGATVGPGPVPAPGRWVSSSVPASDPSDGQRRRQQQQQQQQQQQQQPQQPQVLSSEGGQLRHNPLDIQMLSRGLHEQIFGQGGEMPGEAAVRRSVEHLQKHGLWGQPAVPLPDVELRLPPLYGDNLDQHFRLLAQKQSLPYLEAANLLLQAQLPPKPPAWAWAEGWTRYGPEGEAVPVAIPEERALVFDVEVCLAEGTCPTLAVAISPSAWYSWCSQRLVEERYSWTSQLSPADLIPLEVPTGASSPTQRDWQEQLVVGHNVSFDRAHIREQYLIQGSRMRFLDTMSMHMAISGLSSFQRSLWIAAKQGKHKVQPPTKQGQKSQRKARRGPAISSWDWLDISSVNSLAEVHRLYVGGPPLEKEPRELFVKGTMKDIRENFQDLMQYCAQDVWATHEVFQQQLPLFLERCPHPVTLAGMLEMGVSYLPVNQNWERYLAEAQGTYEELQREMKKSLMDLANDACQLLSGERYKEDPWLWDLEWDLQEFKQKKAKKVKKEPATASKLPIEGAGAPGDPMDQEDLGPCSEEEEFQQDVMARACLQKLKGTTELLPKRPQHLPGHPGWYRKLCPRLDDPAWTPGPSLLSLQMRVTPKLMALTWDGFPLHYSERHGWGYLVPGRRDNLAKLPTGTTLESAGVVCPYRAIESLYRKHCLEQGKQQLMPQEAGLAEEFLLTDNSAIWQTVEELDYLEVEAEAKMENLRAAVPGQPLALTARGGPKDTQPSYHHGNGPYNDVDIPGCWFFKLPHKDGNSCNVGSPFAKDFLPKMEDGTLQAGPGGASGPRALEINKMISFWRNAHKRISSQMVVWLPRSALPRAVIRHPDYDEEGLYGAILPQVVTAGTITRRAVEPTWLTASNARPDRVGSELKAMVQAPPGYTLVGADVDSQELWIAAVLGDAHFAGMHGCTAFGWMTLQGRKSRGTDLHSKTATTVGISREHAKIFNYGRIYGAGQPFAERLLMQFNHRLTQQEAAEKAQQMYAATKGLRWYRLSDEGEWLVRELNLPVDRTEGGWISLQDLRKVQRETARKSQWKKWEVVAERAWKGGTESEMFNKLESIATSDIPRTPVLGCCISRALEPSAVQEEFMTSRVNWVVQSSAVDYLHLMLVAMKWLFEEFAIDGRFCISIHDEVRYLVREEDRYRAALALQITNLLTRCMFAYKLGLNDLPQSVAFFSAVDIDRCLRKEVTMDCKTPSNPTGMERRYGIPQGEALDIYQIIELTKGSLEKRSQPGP

[15] = tested on: Human immunodeficiency virus; experiment: Substrate activity at HIV reverse transcriptase measured after 4 hrs by electrophoresis based primer extension assay

SMILES	Retention_time [1] [min]	half-life [2] [days]	t1/2 [3] [s]	t1/2 [4] [h]	EC50 [5] [µM]	EC50 [6] [µM]	EC50 [7] [µM]	CC50 [8] [µM]	selectivity ratio [9]	t1/2 [10] [h]	Drug metabolism [11]	Drug metabolism [3]	Drug metabolism [4]	Activity [12]	Activity [13]	Activity [14]	Activity [15]
CCCCCCCCCCCCOP(=O)(OCc1ccc(OC(=O)CCCC)cc1)OP(=O)(O)OC[C@@H]1C=C[C@H](n2cc(C)c(=O)[nH]c2=O)O1.N (stereo not given in full)	16.6	11.9	< 36	1.1	0.39	0.36	1.39	> 100	> 72								
CCCCCCCCCCCCP(=O)(O)OP(=O)(O)OC[C@@H]1C=C[C@H](n2cc(C)c(=O)[nH]c2=O)O1.N.N	12.3	> 83.3		> 30	0.87	0.2	12.6	> 100	> 8	> 150	Metabolite_Notdetected						
CCCCC(=O)Oc1ccc(COP(=O)(OC)OP(=O)(O)OC[C@@H]2C=C[C@H](n3cc(C)c(=O)[nH]c3=O)O2)cc1.N (stereo not given in full)	11.3	3.5			0.43	0.41	8.95	> 100	> 11			Metabolite_Notdetected	Metabolite_Notdetected				
Cc1cn([C@H]2C=C[C@@H](CO)O2)c(=O)[nH]c1=O [STAVUDINE]							> 50	> 50	> 1								
COP(=O)(O)OP(=O)(O)OC[C@@H]1C=C[C@H](n2cc(C)c(=O)[nH]c2=O)O1.N.N	8.9	> 125			0.52	0.18	40.4	> 100	> 2	> 150	Metabolite_Notdetected		Metabolite_Notdetected	inactive	inactive	inactive	
CCCCCCCCCCCCCCCCCCOP(=O)(O)OP(=O)(O)OC[C@@H]1C=C[C@H](n2cc(C)c(=O)[nH]c2=O)O1.N.N	15.1	> 125		> 13	0.33	0.068	0.001	> 100	> 62500	> 150	Metabolite_Notdetected			inactive	inactive	inactive	inactive
CCCCCCCCCCCCOP(=O)(O)OP(=O)(O)OC[C@@H]1C=C[C@H](n2cc(C)c(=O)[nH]c2=O)O1.N.N	12.6	> 125		> 30	0.56	0.19	11	> 100	> 9	> 150	Metabolite_Notdetected			inactive	inactive	inactive	
CCCCOP(=O)(O)OP(=O)(O)OC[C@@H]1C=C[C@H](n2cc(C)c(=O)[nH]c2=O)O1.N.N	9.4	> 125		> 30	0.72	0.42	43.2	> 100	> 2	> 150	Metabolite_Notdetected			inactive	inactive	inactive	
Cc1cn([C@H]2C=C[C@@H](COP(=O)(O)OP(=O)(O)O)O2)c(=O)[nH]c1=O																	Active
